Results on eleven compounds are retold here after patent US10807964B2, “Benzothiophene-based selective estrogen receptor downregulators” (The Board of Trustees of the University of Illinois, priority 2015, dated 2020).

Each structure is given as a SMILES string.

One data set concerns the target T1, estrogen receptor (Homo sapiens, UniProt P03372).
T1 construct: Whole-cell extracts of cultured cells were prepared in lysis buffer; endogenous in cells
T1 sequence (P03372 1-595): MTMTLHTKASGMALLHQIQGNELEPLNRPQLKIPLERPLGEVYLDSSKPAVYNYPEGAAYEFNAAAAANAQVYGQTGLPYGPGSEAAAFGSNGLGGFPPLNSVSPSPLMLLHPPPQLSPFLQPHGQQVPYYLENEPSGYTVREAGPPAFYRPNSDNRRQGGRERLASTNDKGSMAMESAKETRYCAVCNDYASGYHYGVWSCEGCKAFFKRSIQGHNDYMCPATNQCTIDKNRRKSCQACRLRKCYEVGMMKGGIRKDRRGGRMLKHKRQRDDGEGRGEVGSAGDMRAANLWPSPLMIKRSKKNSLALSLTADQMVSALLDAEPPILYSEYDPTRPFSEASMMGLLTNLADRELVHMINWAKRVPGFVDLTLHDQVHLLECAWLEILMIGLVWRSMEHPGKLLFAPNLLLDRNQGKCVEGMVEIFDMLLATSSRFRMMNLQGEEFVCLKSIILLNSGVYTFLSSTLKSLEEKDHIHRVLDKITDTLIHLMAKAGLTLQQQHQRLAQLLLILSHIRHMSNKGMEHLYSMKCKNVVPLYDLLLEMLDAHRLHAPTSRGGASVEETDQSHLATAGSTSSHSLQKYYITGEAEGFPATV
Put plainly: Western blot of estrogen receptor downregulation (FIG. 4). The conditions noted are these: 10 nM concentrations. It counts as cell-based. The protocol: Whole-cell extracts of cultured cells were prepared in lysis buffer (200 mmol/L Tris, 1% Triton X-100, 5 mmol/L; EDTA) with protease and phosphatase inhibitor cocktails (1:50, both from Sigma-Aldrich) after scraping from the culture plates. Protein concentration was measured using the Bradford method (Bio-Rad). Proteins were separated under denaturing conditions and blotted onto nitrocellulose membrane (Bio-Rad) using a wet transfer system (Bio-Rad). Images of blots were acquired on a Bio-Rad ChemiDoc System following incubation with SuperSignal West Dura luminol solution (Thermo Fisher Scientific).
Background: In western blotting, separated proteins are transferred to a membrane and probed.

A short description of data set [1]: Mouse plasma concentration after oral administration. It is filed as in vivo. The conditions noted are these: average of three mice; for concentration at 0.5 h: 0.5 h after oral gavage at 100 mg/kg; for concentration at 4 h: 4 h after oral gavage at 100 mg/kg.
The target of the next data set is T2, ERα (Homo sapiens, UniProt P03372).
T2 construct: MCF-7:WS8 cells were kept in stripped medium 2 days; endogenous in cells; host or cells: MCF-7:WS8
T2 sequence (P03372 1-595): T1 sequence (P03372 1-595)
The data set is described as follows: ER downregulation/degradation by in-cell western (ICW) in MCF-7:WS8 cells. It is filed as cell-based. The conditions noted are these: Table 2; read-out: IC50 of ER downregulation from in-cell western blot experiments.

The subject of the next data set is MCF-7:Tam1 tumors. The data set is described as follows: MCF-7:TAM1 xenograft model of endocrine-resistant ER+ breast cancer. It is filed as in vivo, ovariectomized athymic nude mice. The conditions noted are these: 100 mg/kg daily by oral gavage; GDN-0810 at day 23 after treatment.

Turning to `Cc1cc(F)ccc1C(=O)c1sc2cc(O)ccc2c1Oc1ccc(/C=C/C(=O)O)cc1` [Compound 1, (E)-3-(4-((2-(4-Fluoro-2-methylbenzoyl)-6-hydroxybenzo[b]thiophen-3-yl)oxy)phenyl)acrylic acid], the “Estrogen receptor downregulation, western blot” value (“Estrogen receptor downregulation” below) at estrogen receptor is listed as “downregulate the estrogen receptor”. Moreover, in data set [1], the concentration at 0.5 h was 1240 nM and the concentration at 4 h was found to be 145 nM. In the case of `CCc1ccccc1C(=O)c1sc2cc(O)ccc2c1Oc1ccc(/C=C/C(=O)O)cc1` [Compound 3, (E)-3-(4-((2-(2-Ethylbenzoyl)-6-hydroxybenzo[b]thiophen-3-yl)oxy)phenyl) acrylic acid], the “Estrogen receptor downregulation” value on estrogen receptor was “downregulate the estrogen receptor”. In the case of `O=C(O)/C=C/c1ccc(Oc2c(C(=O)c3ccccc3)sc3cc(O)ccc23)cc1` [Compound 4, (E)-3-(4-((2-Benzoyl-6-hydroxybenzo[b]thiophen-3-yl)oxy)phenyl) acrylic acid], at ERα, the DC50 was found to be 5 nM.

Take `Cc1ccccc1C(=O)c1sc2cc(O)ccc2c1Oc1ccc(/C=C/C(=O)O)cc1` [Compound 5, (E)-3-(4-((6-Hydroxy-2-(2-methylbenzoyl)benzo[b]thiophen-3-yl)oxy)phenyl) acrylic acid]: the “Estrogen receptor downregulation” value on estrogen receptor was “downregulate the estrogen receptor”. In addition, in data set [1], the concentration at 0.5 h worked out at 5580 nM and the concentration at 4 h was determined as 47 nM. With `Cc1ccc(F)cc1C(=O)c1sc2cc(O)ccc2c1Oc1ccc(/C=C/C(=O)O)cc1` [Compound 6, (E)-3-(4-((2-(5-Fluoro-2-methylbenzoyl)-6-hydroxybenzo[b]thiophen-3-yl)oxy)phenyl) acrylic acid], the “Estrogen receptor downregulation” value on estrogen receptor was “downregulate the estrogen receptor”. Regarding `Cc1ccsc1C(=O)c1sc2cc(O)ccc2c1Oc1ccc(/C=C/C(=O)O)cc1` [Compound 7, (E)-3-(4-((6-Hydroxy-2-(3-methylthiophene-2-carbonyl)benzo[b]thiophen-3-yl)oxy)phenyl) acrylic acid], the “Estrogen receptor downregulation” value at estrogen receptor is reported as “downregulate the estrogen receptor”. For the compound `Cc1cccc(C)c1C(=O)c1sc2cc(O)ccc2c1Oc1ccc(/C=C/C(=O)O)cc1` [Compound 11, (E)-3-(4-((2-(2,6-Dimethylbenzoyl)-6-hydroxybenzo[b]thiophen-3-yl)oxy)phenyl) acrylic acid], in data set [1], the concentration at 0.5 h stood at 1010 nM and the concentration at 4 h amounted to 0.5 nM. With `Cc1ccc(C(=O)c2sc3cc(O)ccc3c2Oc2ccc(/C=C/C(=O)O)cc2)c(C)c1` [Compound 12, (E)-3-(4-((2-(2,4-Dimethylbenzoyl)-6-hydroxybenzo[b]thiopben-3-yl)oxy)phenyl) acrylic acid], in data set [1], the concentration at 0.5 h stood at 3870 nM and the concentration at 4 h was determined as 432 nM. For `Cc1cc(F)cc(C)c1C(=O)c1sc2cc(O)ccc2c1Oc1ccc(/C=C/C(=O)O)cc1` [Compound 20, (E)-3-(4-((2-(4-Fluoro-2,6-dimethylbenzoyl)-6-hydroxybenzo[b]thiophen-3-yl)oxy)phenyl) acrylic acid], in data set [1], the concentration at 0.5 h came to 9720 nM and the concentration at 4 h is 164 nM. As to `Cc1cc(Cl)cc(C)c1C(=O)c1sc2cc(O)ccc2c1Oc1ccc(/C=C/C(=O)O)cc1` [Compound 21, (E)-3-(4-((2-(4-Chloro-2,6-dimethylbenzoyl)-6-hydroxybenzo[b]thiophen-3-yl)oxy)phenyl) acrylic acid], the concentration at 4 h in data set [1] was determined as 858 nM. Regarding `CC/C(=C(\c1ccccc1)c1ccc(OCCN(C)C)cc1)c1ccccc1` [Tamoxifen], in the data set on MCF-7:Tam1 tumors, the “Regression of tumor size (tumor area reduction)” value is reported as “entirely without effect”.
